From patent US10494410B2, “Inhibitor Peptides of ERK-type MAP kinase” (Universite Pierre Et Marie Curie, priority 2005, dated 2019)
Ends that are not written are not given here.

Legend:
HEK293 cells = experiment: Cell penetration and intracellular localization of FITC-coupled peptide in HEK293 cells (fluorescence, Hoechst nuclei); format: cell-based; conditions: unlabeled peptide, statement in Example 1; cells not specified
Description: HEK293 cells are placed in the presence of the peptide F2 at various concentrations (1 mM stock solution in distilled water, then dilutions to 25, 50 and 100 μM in DMEM culture medium), for 15, 30 or 60 minutes, continuously. The cell nuclei are labeled using Hoechst dye (left panel), and the peptide F2 is visualized by means of the FITC label (middle panel). […] The labeled cell nuclei are shown on the left panels, the peptide F2 on the middle panels and the superimposition of these two labelings is represented on the right panels (panels marked fusion).
HEK293 cells are placed in the presence of the peptide F1 at various concentrations (1 mM stock solution in distilled water, then dilutions to 25, 50 and 100 μM in
DMEM culture medium) for 15, 30 or 60 minutes, continuously. The cell nuclei are labeled using Hoechst dye, and the peptide F1 is visualized by means of the FITC label.

Elk-1 = experiment: Serum-induced P-Elk-1 in HEK cells, immunocytochemistry; format: cell-based; conditions: peptide 10 μM for 40 minutes, serum 20 minutes
Description: HEK cells are placed in the presence of the peptide P2 (FIG. 4, middle panels) or P1 (FIG. 4, right panels), at the concentration of 10 μM for 40 minutes. Nontreated cells (without peptide) are used as controls (FIG. 4, left panels).
The cells are then treated for 20 minutes using fetal calf serum (serum) in order to activate the MAP kinase/ERK pathway.
The corresponding nuclei are visualized by means of the same star on the panels of the third line, marked Hoechst.

Sequence | cell penetration (HEK293 cells) | induction of P-Elk-1 (phosphorylation of Elk-1) in response to serum (Elk-1)
GRKKRRQRRRPPSPAKLSFQFPSGSAQVHI [Peptide P2] | penetrates into the cells | –
GRKKRRQRRRCCTLWQFLLHLLLDSPAKLSFQFPSGSAQVHI (sequence which inhibits the interaction between Elk 1 and ERK) [Peptide P1, HIV-TAT penetrating peptide, CC cleavage site, NES of Net, FXFP docking domain of Elk-1] | penetrates into the cells | not and also in the presence of serum and of the peptide P1
